Values quoted from earlier work in US20080318919A1, “Cefquinome Compositions and Methods of Their Use” (Intervet International B.V., priority 2005, published 2008).

Test system: Mannheimia haemolytica
Conditions: concentration that inhibits the growth of 90% of the target pathogen

## CO/N=C(\C(=O)N[C@@H]1C(=O)N2C(C(=O)[O-])=C(C[n+]3cccc4c3CCCC4)CS[C@H]12)c1csc(N)n1 [cefquinome, Cefquinome]
  MIC90: about 0.25 μg/ml
